Measured values from the supplement of paper PMC4862054.
Blank lines part the entries; values can stand above or below the molecule they belong to.

How the values were obtained:
Details in all cases: 72 h
MCF-10A [1] = test system: MCF-10A
In short: (§1)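 The plates used were 384-well plates holding compound at 5 concentrations in 10-fold steps across a compound-specific 10,000-fold range, into which breast cancer cell lines were seeded in 20 µl suspension. Following 72 h incubation, CellTox Green fluorescence was read at 485/520 nm, and CellTiter-Glo luminescence was read after 10 min at room temperature. Normalisation on each plate used 0.1 % DMSO and a positive kill control. Dose-response curves gave the EC50, which was censored at the top concentration.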

MDA-MB-468 [2] = test system: MDA-MB-468
In short: as §1

BT-549 [3] = test system: BT-549
In short: as §1

MDA-MB-453 [4] = test system: MDA-MB-453
In short: as §1

MFM-223 [5] = test system: MFM-223
In short: as §1

SK-BR-3 [6] = test system: SK-BR-3
In short: as §1

CAL-120 [7] = test system: CAL-120
In short: as §1

BT-474 [8] = test system: BT-474
In short: as §1

CAL-120 [9] = test system: CAL-120; remark: listed apart in the source
Procedure: (§2)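 Drug sensitivity and resistance testing (DSRT) of breast cancer cell lines in 384-well plates, 5 concentrations in 10-fold dilutions over a compound-specific 10,000-fold range. After 72 h, cytotoxicity was read by CellTox Green fluorescence and viability by CellTiter-Glo luminescence (multiplexed), normalised to DMSO and benzethonium chloride controls. EC50 is the inflection point of the fitted dose-response curve (bottom asymptote free, so it can be relative for partial curves) and is censored at the highest tested concentration. Rows with DSS 0 (no meaningful response) were excluded.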

HCC1937 [10] = test system: HCC1937
In short: as §1

HCC1143 [11] = test system: HCC1143
In short: as §1

MDA-MB-436 [12] = test system: MDA-MB-436
In short: as §1

CAL-51 [13] = test system: CAL-51
In short: as §1

CAL-148 [14] = test system: CAL-148
In short: as §1

MDA-MB-231 [15] = test system: MDA-MB-231
In short: (§3)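 Rows with a drug sensitivity score of zero were dropped, and EC50 was taken from the fitted percent-inhibition dose-response curve, censored at the highest concentration. Data were normalised on each plate to vehicle and a positive kill control and checked by Z'-factor. The assay seeded breast cancer cell lines in 20 µl onto 384-well plates pre-loaded with compound in 5 µl medium for 72 h, then added 2.5 µl CellTiter-Blue for 2 h at 37 °C and read fluorescence at 560/590 nm.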

HCC1937 [16] = test system: HCC1937; remark: listed apart in the source
In short: as §3

BT-549 [17] = test system: BT-549; remark: listed apart in the source
In short: as §3

Hs578T [18] = test system: Hs578T
In short: as §3

HCC1143 [19] = test system: HCC1143; remark: listed apart in the source
In short: as §3

MDA-MB-436 [20] = test system: MDA-MB-436; remark: listed apart in the source
In short: as §3

CAL-120 [21] = test system: CAL-120; remark: listed apart in the source
In short: as §3

MDA-MB-436 [22] = test system: MDA-MB-436; remark: listed apart in the source
Procedure: as §2

CAL-148 [23] = test system: CAL-148; remark: listed apart in the source
Procedure: as §2

CAL-51 [24] = test system: CAL-51; remark: listed apart in the source
In short: as §3

MDA-MB-231 [25] = test system: MDA-MB-231; remark: listed apart in the source
In short: as §1

HCC1599 [26] = test system: HCC1599
In short: as §1

CAL-85-1 [27] = test system: CAL-85-1
In short: as §1

Hs578T [28] = test system: Hs578T; remark: listed apart in the source
In short: as §1

HDQ-P1 [29] = test system: HDQ-P1
In short: as §1

DU-4475 [30] = test system: DU-4475
In short: as §1

HCC1599 [31] = test system: HCC1599; remark: listed apart in the source
In short: as §3

MDA-MB-468 [32] = test system: MDA-MB-468; remark: listed apart in the source
In short: as §3

MFM-223 [33] = test system: MFM-223; remark: listed apart in the source
In short: as §3

SK-BR-3 [34] = test system: SK-BR-3; remark: listed apart in the source
In short: as §3

BT-474 [35] = test system: BT-474; remark: listed apart in the source
In short: as §3

MCF-10A [36] = test system: MCF-10A; remark: listed apart in the source
Procedure: as §2

MDA-MB-231 [37] = test system: MDA-MB-231; remark: listed apart in the source
Procedure: as §2

HCC1937 [38] = test system: HCC1937; remark: listed apart in the source
Procedure: as §2

MDA-MB-468 [39] = test system: MDA-MB-468; remark: listed apart in the source
Procedure: as §2

BT-549 [40] = test system: BT-549; remark: listed apart in the source
Procedure: as §2

MFM-223 [41] = test system: MFM-223; remark: listed apart in the source
Procedure: as §2

CAL-85-1 [42] = test system: CAL-85-1; remark: listed apart in the source
Procedure: as §2

Hs578T [43] = test system: Hs578T; remark: listed apart in the source
Procedure: as §2

HDQ-P1 [44] = test system: HDQ-P1; remark: listed apart in the source
Procedure: as §2

BT-474 [45] = test system: BT-474; remark: listed apart in the source
Procedure: as §2

MDA-MB-453 [46] = test system: MDA-MB-453; remark: listed apart in the source
In short: as §3

CAL-85-1 [47] = test system: CAL-85-1; remark: listed apart in the source
In short: as §3

HDQ-P1 [48] = test system: HDQ-P1; remark: listed apart in the source
In short: as §3

CAL-148 [49] = test system: CAL-148; remark: listed apart in the source
In short: as §3

DU-4475 [50] = test system: DU-4475; remark: listed apart in the source
In short: as §3

EC50, CellTiter-Glo (MDA-MB-468 [2]): 6760 nM
EC50, CellTiter-Glo (BT-549 [3]): 3340 nM
EC50, CellTiter-Glo (MDA-MB-453 [4]): 1910 nM
EC50, CellTiter-Glo (SK-BR-3 [6]): 3050 nM
EC50, CellTiter-Glo (BT-474 [8]): > 10000 nM
SMILES: CC(C)(C)Cn1c(N)nc2ccc(-c3[nH]c(C(C)(C)C)nc3-c3ccc(F)cc3)nc21
EC50, CellTiter-Glo (MCF-10A [1]): 4590 nM
EC50, CellTiter-Glo (MFM-223 [5]): 3110 nM
EC50, CellTiter-Glo (CAL-120 [7]): > 10000 nM
EC50, CellTox Green (CAL-120 [9]): > 10000 nM

SMILES: Cc1c(N)nc([C@H](CC(N)=O)NC[C@H](N)C(N)=O)nc1C(=O)N[C@H](C(=O)N[C@H](C)[C@@H](O)[C@H](C)C(=O)N[C@H](C(=O)NCCc1nc(-c2nc(C(=O)NCCC[S+](C)C)cs2)cs1)[C@@H](C)O)[C@@H](OC1OC(CO)C(O)C(O)C1OC1OC(CO)C(O)C(OC(N)=O)C1O)c1cnc[nH]1 (stereo partly specified) [Bleomycin]
EC50, CellTiter-Glo (HCC1937 [10]): 8710 nM
EC50, CellTiter-Glo (BT-549 [3]): 2360 nM
EC50, CellTiter-Glo (HCC1143 [11]): 9670 nM
EC50, CellTiter-Glo (MDA-MB-436 [12]): 5920 nM
EC50, CellTiter-Glo (SK-BR-3 [6]): 1830 nM
EC50, CellTiter-Glo (CAL-51 [13]): 49.9 nM
EC50, CellTiter-Glo (CAL-148 [14]): 911 nM
EC50, CellTiter-Blue viability (MDA-MB-231 [15]): 109 nM
EC50, CellTiter-Blue viability (HCC1937 [16]): 767 nM
EC50, CellTiter-Blue viability (BT-549 [17]): 16.4 nM
EC50, CellTiter-Blue viability (Hs578T [18]): 69.2 nM
EC50, CellTiter-Blue viability (HCC1143 [19]): 201 nM
EC50, CellTiter-Blue viability (MDA-MB-436 [20]): 7330 nM
EC50, CellTiter-Blue viability (CAL-120 [21]): 582 nM
EC50, CellTox Green (MDA-MB-436 [22]): 7500 nM
EC50, CellTox Green (CAL-148 [23]): 396 nM
EC50, CellTiter-Blue viability (CAL-51 [24]): 9960 nM

EC50, CellTiter-Glo (MDA-MB-231 [25]): 16.9 nM
EC50, CellTiter-Glo (HCC1599 [26]): 96.1 nM
EC50, CellTiter-Glo (HCC1937 [10]): 17.2 nM
EC50, CellTiter-Glo (MDA-MB-468 [2]): 3.42 nM
EC50, CellTiter-Glo (BT-549 [3]): 3.63 nM
EC50, CellTiter-Glo (MDA-MB-453 [4]): 7.36 nM
EC50, CellTiter-Glo (HCC1143 [11]): 8.56 nM
EC50, CellTiter-Glo (MDA-MB-436 [12]): 6.13 nM
EC50, CellTiter-Glo (SK-BR-3 [6]): 5.41 nM
EC50, CellTiter-Glo (BT-474 [8]): 13.8 nM
EC50, CellTiter-Blue viability (MDA-MB-231 [15]): 6.44 nM
EC50, CellTiter-Blue viability (HCC1599 [31]): 88.6 nM
EC50, CellTiter-Blue viability (HCC1937 [16]): 2.21 nM
EC50, CellTiter-Blue viability (MDA-MB-468 [32]): 5.66 nM
EC50, CellTiter-Blue viability (BT-549 [17]): 2.78 nM
EC50, CellTiter-Blue viability (HCC1143 [19]): 8.47 nM
EC50, CellTiter-Blue viability (MDA-MB-436 [20]): 14.3 nM
EC50, CellTiter-Blue viability (SK-BR-3 [34]): 5.45 nM
EC50, CellTiter-Blue viability (BT-474 [35]): 26.9 nM
EC50, CellTiter-Blue viability (MDA-MB-453 [46]): 2.22 nM
SMILES: CC(C)C[C@H](NC(=O)[C@H](CCc1ccccc1)NC(=O)CN1CCOCC1)C(=O)N[C@@H](Cc1ccccc1)C(=O)N[C@@H](CC(C)C)C(=O)[C@@]1(C)CO1 [Carfilzomib]
EC50, CellTiter-Glo (MCF-10A [1]): 90.6 nM
EC50, CellTiter-Glo (MFM-223 [5]): 3.9 nM
EC50, CellTiter-Glo (CAL-85-1 [27]): 8.12 nM
EC50, CellTiter-Glo (Hs578T [28]): 12.4 nM
EC50, CellTiter-Glo (HDQ-P1 [29]): 19.1 nM
EC50, CellTiter-Glo (CAL-51 [13]): 13.1 nM
EC50, CellTiter-Glo (CAL-148 [14]): 33.1 nM
EC50, CellTiter-Glo (DU-4475 [30]): 42.8 nM
EC50, CellTiter-Glo (CAL-120 [7]): 25.3 nM
EC50, CellTiter-Blue viability (MFM-223 [33]): 1.94 nM
EC50, CellTiter-Blue viability (Hs578T [18]): 5.47 nM
EC50, CellTiter-Blue viability (CAL-120 [21]): 9.07 nM
EC50, CellTox Green (MCF-10A [36]): 136 nM
EC50, CellTox Green (MDA-MB-231 [37]): 10.2 nM
EC50, CellTox Green (HCC1937 [38]): 6.49 nM
EC50, CellTox Green (MDA-MB-468 [39]): 0.78 nM
EC50, CellTox Green (BT-549 [40]): 11.4 nM
EC50, CellTox Green (MFM-223 [41]): 8.42 nM
EC50, CellTox Green (CAL-85-1 [42]): 9 nM
EC50, CellTox Green (Hs578T [43]): 31.9 nM
EC50, CellTox Green (MDA-MB-436 [22]): 6.94 nM
EC50, CellTox Green (HDQ-P1 [44]): 25.1 nM
EC50, CellTox Green (CAL-148 [23]): 16.1 nM
EC50, CellTox Green (CAL-120 [9]): 34.6 nM
EC50, CellTox Green (BT-474 [45]): 60.2 nM
EC50, CellTiter-Blue viability (CAL-85-1 [47]): 13.6 nM
EC50, CellTiter-Blue viability (HDQ-P1 [48]): 10.9 nM
EC50, CellTiter-Blue viability (CAL-51 [24]): 20.2 nM
EC50, CellTiter-Blue viability (CAL-148 [49]): 25.8 nM
EC50, CellTiter-Blue viability (DU-4475 [50]): 12.2 nM
